According to the NIST ThermoML archive (doi:10.1021/je400055v):
Numbers after ± are expanded uncertainties.

Assay: xn = mol fraction of the nth substance listed
Settings: Liquid, Vibrating tube method

`CCCCCCCCCCC` [undecane] + CCCCCCC showed a mass density (313.15 K, 23000 kPa, x2 = 0.05) of 740.6 ± 0.4 kg/m3, a mass density (313.15 K, 23000 kPa, x2 = 0.7482) of 706.2 ± 0.4 kg/m3 and a mass density (313.15 K, 24000 kPa, x2 = 0.05) of 741.3 ± 0.4 kg/m3. For the same molecule, the mass density (313.15 K, 24000 kPa, x2 = 0.7482) was 707 ± 0.4 kg/m3, the mass density (313.15 K, 25000 kPa, x2 = 0.05) was 741.9 ± 0.4 kg/m3 and the mass density (313.15 K, 25000 kPa, x2 = 0.7482) was 707.7 ± 0.4 kg/m3. It also gave a mass density (313.16 K, 1000 kPa, x2 = 0.2346) of 716.5 ± 0.3 kg/m3, a mass density (313.16 K, 2001 kPa, x2 = 0.2346) of 717.4 ± 0.3 kg/m3 and a mass density (313.16 K, 3000 kPa, x2 = 0.2346) of 718.3 ± 0.3 kg/m3. It also gave a mass density (313.16 K, 4001 kPa, x2 = 0.2346) of 719.2 ± 0.3 kg/m3, a mass density (313.16 K, 5000 kPa, x2 = 0.2346) of 720 ± 0.3 kg/m3 and a mass density (313.16 K, 6000 kPa, x2 = 0.2346) of 720.8 ± 0.3 kg/m3. It also gave a mass density (313.16 K, 7000 kPa, x2 = 0.2346) of 721.7 ± 0.3 kg/m3, a mass density (313.16 K, 8000 kPa, x2 = 0.2346) of 722.5 ± 0.3 kg/m3 and a mass density (313.16 K, 9000 kPa, x2 = 0.2346) of 723.3 ± 0.3 kg/m3. The mass density (313.16 K, 10000 kPa, x2 = 0.2346) was 724.1 ± 0.3 kg/m3, the mass density (313.16 K, 11001 kPa, x2 = 0.2346) was 724.8 ± 0.3 kg/m3 and the mass density (313.16 K, 12000 kPa, x2 = 0.2346) was 725.6 ± 0.3 kg/m3. The mass density (313.16 K, 13000 kPa, x2 = 0.2346) was 726.4 ± 0.3 kg/m3, the mass density (313.16 K, 14000 kPa, x2 = 0.2346) was 727.1 ± 0.3 kg/m3 and the mass density (313.16 K, 15000 kPa, x2 = 0.2346) was 727.8 ± 0.3 kg/m3. It also gave a mass density (313.16 K, 16000 kPa, x2 = 0.2346) of 728.6 ± 0.4 kg/m3, a mass density (313.16 K, 17000 kPa, x2 = 0.2346) of 729.3 ± 0.4 kg/m3 and a mass density (313.16 K, 18000 kPa, x2 = 0.2346) of 730 ± 0.4 kg/m3. It also gave a mass density (313.16 K, 19000 kPa, x2 = 0.2346) of 730.7 ± 0.4 kg/m3, a mass density (313.16 K, 20000 kPa, x2 = 0.2346) of 731.4 ± 0.4 kg/m3 and a mass density (313.16 K, 21000 kPa, x2 = 0.2346) of 732.1 ± 0.4 kg/m3. The mass density (313.16 K, 22000 kPa, x2 = 0.2346) was 732.7 ± 0.4 kg/m3, the mass density (313.16 K, 23000 kPa, x2 = 0.2346) was 733.4 ± 0.4 kg/m3 and the mass density (313.16 K, 24000 kPa, x2 = 0.2346) was 734 ± 0.4 kg/m3. For the same molecule, the mass density (313.16 K, 25000 kPa, x2 = 0.2346) was 734.7 ± 0.4 kg/m3, the mass density (323.09 K, 1001 kPa, x2 = 0.9511) was 663.1 ± 0.3 kg/m3 and the mass density (323.09 K, 2000 kPa, x2 = 0.9511) was 664.3 ± 0.3 kg/m3. For the same molecule, the mass density (323.09 K, 3000 kPa, x2 = 0.9511) was 665.4 ± 0.3 kg/m3, the mass density (323.09 K, 4000 kPa, x2 = 0.9511) was 666.6 ± 0.3 kg/m3 and the mass density (323.09 K, 5000 kPa, x2 = 0.9511) was 667.7 ± 0.3 kg/m3. The mass density (323.09 K, 6000 kPa, x2 = 0.9511) was 668.8 ± 0.3 kg/m3, the mass density (323.09 K, 7000 kPa, x2 = 0.9511) was 669.9 ± 0.3 kg/m3 and the mass density (323.09 K, 8000 kPa, x2 = 0.9511) was 670.9 ± 0.3 kg/m3. The mass density (323.09 K, 9000 kPa, x2 = 0.9511) was 672 ± 0.3 kg/m3, the mass density (323.09 K, 10000 kPa, x2 = 0.9511) was 673 ± 0.3 kg/m3 and the mass density (323.09 K, 11000 kPa, x2 = 0.9511) was 674 ± 0.4 kg/m3. It also gave a mass density (323.09 K, 12000 kPa, x2 = 0.9511) of 675 ± 0.4 kg/m3, a mass density (323.09 K, 13000 kPa, x2 = 0.9511) of 675.9 ± 0.4 kg/m3 and a mass density (323.09 K, 14001 kPa, x2 = 0.9511) of 676.9 ± 0.4 kg/m3. The mass density (323.09 K, 15001 kPa, x2 = 0.9511) was 677.8 ± 0.4 kg/m3, the mass density (323.09 K, 16000 kPa, x2 = 0.9511) was 678.7 ± 0.4 kg/m3 and the mass density (323.09 K, 17001 kPa, x2 = 0.9511) was 679.6 ± 0.4 kg/m3. It also gave a mass density (323.09 K, 18001 kPa, x2 = 0.9511) of 680.5 ± 0.4 kg/m3, a mass density (323.09 K, 19000 kPa, x2 = 0.9511) of 681.4 ± 0.4 kg/m3 and a mass density (323.09 K, 20000 kPa, x2 = 0.9511) of 682.3 ± 0.4 kg/m3. The mass density (323.09 K, 21001 kPa, x2 = 0.9511) was 683.1 ± 0.4 kg/m3, the mass density (323.09 K, 22000 kPa, x2 = 0.9511) was 683.9 ± 0.4 kg/m3 and the mass density (323.09 K, 23001 kPa, x2 = 0.9511) was 684.8 ± 0.5 kg/m3. For the same molecule, the mass density (323.09 K, 24000 kPa, x2 = 0.9511) was 685.6 ± 0.5 kg/m3, the mass density (323.09 K, 25000 kPa, x2 = 0.9511) was 686.3 ± 0.5 kg/m3 and the mass density (323.11 K, 2001 kPa, x2 = 0.5063) was 695.8 ± 0.3 kg/m3. It also gave a mass density (323.11 K, 3000 kPa, x2 = 0.5063) of 696.8 ± 0.3 kg/m3, a mass density (323.11 K, 4000 kPa, x2 = 0.5063) of 697.8 ± 0.3 kg/m3 and a mass density (323.11 K, 5000 kPa, x2 = 0.5063) of 698.8 ± 0.3 kg/m3. The mass density (323.11 K, 6000 kPa, x2 = 0.5063) was 699.7 ± 0.3 kg/m3, the mass density (323.11 K, 7000 kPa, x2 = 0.5063) was 700.7 ± 0.3 kg/m3 and the mass density (323.11 K, 8001 kPa, x2 = 0.5063) was 701.6 ± 0.3 kg/m3. For the same molecule, the mass density (323.11 K, 9000 kPa, x2 = 0.5063) was 702.5 ± 0.3 kg/m3, the mass density (323.11 K, 10000 kPa, x2 = 0.5063) was 703.4 ± 0.3 kg/m3 and the mass density (323.11 K, 11000 kPa, x2 = 0.5063) was 704.3 ± 0.3 kg/m3. It also gave a mass density (323.11 K, 12000 kPa, x2 = 0.5063) of 705.1 ± 0.3 kg/m3, a mass density (323.11 K, 13000 kPa, x2 = 0.5063) of 706 ± 0.3 kg/m3 and a mass density (323.11 K, 14000 kPa, x2 = 0.5063) of 706.8 ± 0.4 kg/m3. For the same molecule, the mass density (323.11 K, 15000 kPa, x2 = 0.5063) was 707.6 ± 0.4 kg/m3, the mass density (323.11 K, 16000 kPa, x2 = 0.5063) was 708.5 ± 0.4 kg/m3 and the mass density (323.11 K, 17001 kPa, x2 = 0.5063) was 709.3 ± 0.4 kg/m3. For the same molecule, the mass density (323.11 K, 18000 kPa, x2 = 0.5063) was 710.1 ± 0.4 kg/m3, the mass density (323.11 K, 19000 kPa, x2 = 0.5063) was 710.8 ± 0.4 kg/m3 and the mass density (323.11 K, 20000 kPa, x2 = 0.5063) was 711.6 ± 0.4 kg/m3. It also gave a mass density (323.11 K, 21001 kPa, x2 = 0.5063) of 712.4 ± 0.4 kg/m3, a mass density (323.11 K, 22050 kPa, x2 = 0.5063) of 713.1 ± 0.4 kg/m3 and a mass density (323.11 K, 23000 kPa, x2 = 0.5063) of 713.9 ± 0.4 kg/m3. The mass density (323.11 K, 24000 kPa, x2 = 0.5063) was 714.6 ± 0.4 kg/m3, the mass density (323.11 K, 25000 kPa, x2 = 0.5063) was 715.3 ± 0.4 kg/m3 and the mass density (323.12 K, 1000 kPa, x2 = 0.7482) was 679.1 ± 0.3 kg/m3. It also gave a mass density (323.12 K, 1001 kPa, x2 = 0.05) of 716.7 ± 0.3 kg/m3, a mass density (323.12 K, 2000 kPa, x2 = 0.7482) of 680.2 ± 0.3 kg/m3 and a mass density (323.12 K, 2001 kPa, x2 = 0.05) of 717.6 ± 0.3 kg/m3. It also gave a mass density (323.12 K, 3000 kPa, x2 = 0.05) of 718.5 ± 0.3 kg/m3, a mass density (323.12 K, 3000 kPa, x2 = 0.7482) of 681.3 ± 0.3 kg/m3 and a mass density (323.12 K, 4000 kPa, x2 = 0.05) of 719.4 ± 0.3 kg/m3. The mass density (323.12 K, 4000 kPa, x2 = 0.7482) was 682.3 ± 0.3 kg/m3, the mass density (323.12 K, 5000 kPa, x2 = 0.05) was 720.3 ± 0.3 kg/m3 and the mass density (323.12 K, 5000 kPa, x2 = 0.7482) was 683.4 ± 0.3 kg/m3. It also gave a mass density (323.12 K, 6000 kPa, x2 = 0.05) of 721.1 ± 0.3 kg/m3, a mass density (323.12 K, 6000 kPa, x2 = 0.7482) of 684.4 ± 0.3 kg/m3 and a mass density (323.12 K, 7000 kPa, x2 = 0.05) of 722 ± 0.3 kg/m3.
